According to US8044065B2, “Benzothienopyridines for use as inhibitors of Eg5 kinesin” (Altana Pharma AG, priority 2004, dated 2011):

Key:
[1] = test system: RKOp27 colon cancer cells; assay: Induction of apoptosis, Cell death detection ELISA; assay type: cell-based; conditions: Homo sapiens, 24 hours, relative to 50 μM cisplatin = 100 cpu, read-out: Apoptosis Induction, -log EC50 (converted)
Experimental: The induction of apoptosis can be measured by using a Cell death detection ELISA (Roche Biochemicals, Mannheim, Germany). RKOp27 colon cancer cells are seeded into 96 well flat bottom plates at a density of 10000 cells per well in a volume of 50 μl RPMI medium (containing 10% fetal calf serum) per well. 24 hours after seeding the 50 μl each of the compound dilutions in RPMI medium are added into each well of the 96 Well plate. Each compound dilution is tested at least as triplicates. Wells containing untreated control cells are filled with 50 μl RPMI medium containing 1% DMSO. The cells are then incubated with the substances for 24 hours at 37° C. in a humidified atmosphere containing 5% carbon dioxide. As a positive control for the induction of apoptosis, cells are treated with 50 μM Cisplatin (Gry Pharmaceuticals, Kirchzarten, Germany). Medium is then removed and the cells are lysed in 200 μl lysis buffer. After centrifugation as described by the manufacturer, 10 μl of cell lysate is processed as described in the protocol. The degree of apoptosis is calculated as follows: The absorbance at 405 nm obtained with lysates from cells treated with 50 μM cisplatin is set as 100 cpu (cisplatin units), while an absorbance at 405 nm of 0.0 was set as 0.0 cpu. The degree of apoptosis is expressed as cpu in relation to the value of 100 cpu reached with the lysates obtained from cells treated with 50 μM cisplatin. The corresponding EC50 values of the compounds for apoptosis inducing activity are determined from the concentration-effect curves.

[2] = test system: RKO colon adenocarcinoma cells (RKOp27), arrested by p27Kip1 induced by Ponasterone A; assay: Alamar Blue cell viability assay, RKO p27 induced by Ponasterone A (arrested cells); assay type: cell-based; conditions: Homo sapiens, RKO p27 induced (10 μM Ponasterone A), 72 hours, read-out: Anti-proliferative/cytotoxic activity, -log IC50, RKO p27 induced (converted)
Experimental: To determine the cell cycle specific mode of action, subclones of RKO colon adenocarcinoma cells (RKOp27 as described by Schmidt et al. in Oncogene 19, 2423-2429; 2000) are seeded into 96 well flat bottom plates at a density of 16000 cells per well in a volume of 50 μl per well in DMEM growth medium with 10% FCS containing 10 μM Ponasterone A. 24 hours after seeding the 50 μl each of the compound dilutions in DMEM medium are added into each well of the 96-well plate. Each compound dilution is tested as quadruplicates. Wells containing untreated control cells are filled with 50 μl DMEM medium containing 1% DMSO. The cells are then incubated with the substances for 72 hours at 37° C. in a humidified atmosphere containing 5% carbon dioxide. To determine the viability of the cells, 10 μl of an Alamar Blue solution (Biosource) are added and the fluorescence is measured at an extinction of 544 nm and an emission of 590 nm. For the calculation of the cell viability the emission value from untreated cells is set as 100% viability and the emission rates of treated cells are set in relation to the values of untreated cells. Viabilities are expressed as % values. Viability is compared of proliferating cells grown in the absence of the inducer Ponasterone A, versus viability of cells arrested by the expression of ectopic p27Kip1 induced by Ponasterone A.

[3] = test system: RKO human colon adenocarcinoma cells (RKOp27), uninduced; assay: Alamar Blue cell viability assay, RKO p27 uninduced (proliferating cells); assay type: cell-based; conditions: 72 hours, read-out: Anti-proliferative/cytotoxic activity, -log IC50, RKO p27 uninduced (converted)
Experimental: The anti-proliferative/cytotoxic activity of the compounds described herein can be tested on subclones of RKO human colon adenocarcinoma cells (Schmidt et al., Oncogene 19, 2423-2429; 2000) using the Alamar Blue cell viability assay (described in O'Brien et al. Eur J Biochem 267, 5421-5426, 2000). The compounds are dissolved as 10 mM solutions in DMSO and subsequently diluted in semi-logarithmic steps. DMSO dilutions are further diluted 1:100 into Dulbecco's modified Eagle's medium (DMEM) containing 10% fetal calf serum to a final concentration twice as much as the final concentration in the test. RKO subclones are seeded into 96 well flat bottom plates at a density of 4000 cells per well in a volume of 50 μl per well. 24 hours after seeding the 50 μl each of the compound dilutions in DMEM medium are added into each well of the 96 well plate. Each compound dilution is tested as quadruplicates. Wells containing untreated control cells are filled with 50 μl DMEM medium containing 1% DMSO. […] To determine the viability of the cells, 10 μl of an Alamar Blue solution (Biosource) are added and the fluorescence is measured at an extinction of 544 nm and an emission of 590 nm. […] Viabilities are expressed as % values.
The corresponding IC50 values of the compounds for anti-proliferative/cytotoxic activity are determined from the concentration-effect curves.
To determine the cell cycle specific mode of action, subclones of RKO colon adenocarcinoma cells (RKOp27 as described by Schmidt et al. in Oncogene 19, 2423-2429; 2000) are seeded into 96 well flat bottom plates at a density of 16000 cells per well in a volume of 50 μl per well in DMEM growth medium with 10% FCS containing 10 μM Ponasterone A. 24 hours after seeding the 50 μl each of the compound dilutions in DMEM medium are added into each well of the 96-well plate. […] To determine the viability of the cells, 10 μl of an Alamar Blue solution (Biosource) are added and the fluorescence is measured at an extinction of 544 nm and an emission of 590 nm. […] Viabilities are expressed as % values. […]

[4] = test system: NCl-H460 non-small cell lung cancer cells; assay: Mitotic spindle malformation by confocal laser scanning microscopy; assay type: cell-based; conditions: 1 μM, 24 hours, anti-alpha tubulin and Hoechst 33342 staining
Experimental: Experimental perturbation of Eg5 function causes a characteristic malformation of the mitotic spindle, which can be examined by confocal laser scanning microscopy. NCl-H460 non-small cell lung cancer cells are grown overnight on glass cover slips (Nunc™ Lab-Tek™ Chamber Slides) in 1800 μl DMEM medium containing 10% fetal calf serum. The test compounds are dissolved as 10 mM solutions in DMSO. Appropriate DMSO dilutions of the test compounds are further diluted 1:10 into DMEM medium containing 10% fetal calf serum to a final concentration ten times as much as the final concentration in the test. 24 hours after seeding, 200 μl of the compound dilutions in DMEM medium are added into each well of the cover slip. As a control, 200 μl DMEM medium containing 10% DMSO are added. 24 hours after incubation with the test compounds, the cells are washed with PBS, and fixed with 3.7% formaldehyde in H2O for 20 min. at 37° C. Subsequently, cells are washed with PBS and incubated with 0.1% Triton X-100 in a buffer containing 1.471 mM KH2PO4, 8.504 mM Na2HPO4, 137 mM NaCl, 1.325 mM CaCl2, 2.685 mM KCl, 0.542 mM MgCl2, pH 7.2 for 15 min. at room temperature. […]

Structure (SMILES)	EC50 [1]	IC50 [2]	IC50 [3]	Mitotic arrest / mitotic spindle phenotype [4]	melting point
CN1C(=O)N2[C@H](c3cccc(O)c3)c3sc4ccccc4c3C[C@@]2(C)C1=O (racemic) [Example 5, (3aSR,10RS)-10-(3-Hydroxy-phenyl)-2,3a-dimethyl-4,10-dihydro-3aH-9-thia-2,10a-diaza-cyclopenta[b]fluorene-1,3-dione]	≤ 2510 nM	–	–	–	–
CN1C(=O)N2[C@H](c3cccc(O)c3)c3[nH]c4ccccc4c3C[C@@]2(C)C1=O [Example 2, (3aS,10R)-10-(3-Hydroxy-phenyl)-2,3a-dimethyl-3a,4,9,10-tetrahydro-2,9,10a-triaza-cyclopenty[b]fluorene-1,3-dione]	≤ 2510 nM	≥ 100000 nM	≤ 631 nM	–	–
CN1C(=O)C2Cc3c(sc4ccccc34)C(c3cccc(O)c3)N2C1=O [Example 3, (3aS,10R)-10-(3-Hydroxy-phenyl)-2-methyl-4,10-dihydro-3aH-9-thia-2,10-diaza-cyclopenta[b]fluorene-1,3-dione]	≤ 2510 nM	≥ 100000 nM	≤ 631 nM	significant enrichment of cells arrested in mitosis	213.3 to 216.4 °C
CN1C(=O)N2C(c3cccc(O)c3)c3[nH]c4ccccc4c3CC2(C)C1=O (racemic) [Example 1, (±)-(3aSR,10RS)-10-(3-Hydroxy-phenyl)-2,3a-dimethyl-3a,4,9,10-tetrahydro-2,9,10a-triaza-cyclopenty[b]fluorene-1,3-dione]	≤ 2510 nM	≥ 100000 nM	≤ 631 nM	significant enrichment of cells arrested in mitosis	299 to 305 °C
